US9018258B2, “Substituted 1-benzylcycloalkylcarboxylic acids and the use thereof” (Bayer Intellectual Property GmbH, priority 2010, dated 2015)

Key:
[1] = tested on: saphenous artery; assay: Vasorelaxant effect in vitro (phenylephrine-contracted saphenous artery rings); design: species or system Rabbits; details: Oryctolagus cuniculus; rabbit saphenous artery rings, phenylephrine-induced contraction
Procedure: Rabbits are anaesthetized and sacrificed by intravenous injection of thiopental sodium (about 50 mg/kg) and exsanguinated. The saphenous artery is removed and divided into rings 3 mm wide. the rings are mounted singly on in each case a pair of triangular hooks open at the end and made of 0.3 mm-thick special wire (Remanium®). Each ring is placed under an initial tension in 5 ml organ baths with Krebs-Henseleit solution which is at 37° C., is gassed with carbogen and has the following composition: NaCl 119 mM; KCl 4.8 mM; CaCl2×2 H2O 1 mM; MgSO4×7 H2O 1.4 mM; KH2PO4 1.2 mM; NaHCO3 25 mM; glucose 10 mM; bovine serum albumin 0.001%. The force of contraction is detected with Statham UC2 cells, amplified and digitized via A/D converters (DAS-1802 HC, Keithley Instruments, Munich) and recorded in parallel on chart recorders. Contractions are induced by addition of phenylephrine.
After several (generally 4) control cycles, the substance to be investigated is added in each further run in increasing dosage, and the level of the contraction achieved under the influence of the test substance is compared with the level of the contraction reached in the last preceding run. The concentration necessary to reduce the contraction reached in the preceding control by 50% is calculated from this (IC50). The standard application volume is 5 μl. The proportion of DMSO in the bath solution corresponds to 0.1%.

[2] = molecular target: T1, GAL4-PPARδ (Homo sapiens, UniProt Q03181); assay: Cellular PPAR transactivation assay, GAL4-PPARδ chimera in CHO-K1 cells; format: cell-based; details: for Emax: CHO-K1, maximum effect relative to reference compound (Example 73 of EP 1 452 521-A1 = 100%), read-out: PPARδ efficacy; for EC50: CHO-K1 cells, luciferase reporter, 6 h stimulation
T1 construct: PPARδ (amino acids 138-442); expressed in transfected cells
T1 sequence (Q03181 138-441 limits assumed): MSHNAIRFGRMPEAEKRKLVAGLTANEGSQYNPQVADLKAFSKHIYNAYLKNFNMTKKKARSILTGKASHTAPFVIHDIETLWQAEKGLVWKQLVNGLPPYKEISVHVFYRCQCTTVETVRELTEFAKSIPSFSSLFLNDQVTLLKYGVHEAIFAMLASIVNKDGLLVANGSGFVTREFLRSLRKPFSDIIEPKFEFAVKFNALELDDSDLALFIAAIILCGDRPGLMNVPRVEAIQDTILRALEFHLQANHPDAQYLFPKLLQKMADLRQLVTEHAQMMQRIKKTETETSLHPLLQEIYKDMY
Summary of the method: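 CHO-K1 cells stably expressing GAL4 DNA-binding domain fused to the human PPAR ligand-binding domain (α aa 167-468, γ aa 203-506, δ aa 138-442) plus a GAL4-driven firefly luciferase reporter. Compounds added in serum-free medium for 6 h; EC50 from luminescence curves. Efficacy in % of a pan-PPAR agonist reference set as 100%.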

[3] = molecular target: T2, soluble guanylate cyclase (sGC) (Rattus norvegicus, UniProt P20595); assay: Stimulation of sGC enzyme activity (PPi detection, luciferase); format: biochemical; details: sGC enzyme in vitro; for EC50: read-out: EC50 (concentration at 50% of maximum efficacy), activating action at the sGC enzyme
T2 construct: made in house; host or cells: Sf9 insect cells (baculovirus)
T2 sequence (P19686 whole entry partner): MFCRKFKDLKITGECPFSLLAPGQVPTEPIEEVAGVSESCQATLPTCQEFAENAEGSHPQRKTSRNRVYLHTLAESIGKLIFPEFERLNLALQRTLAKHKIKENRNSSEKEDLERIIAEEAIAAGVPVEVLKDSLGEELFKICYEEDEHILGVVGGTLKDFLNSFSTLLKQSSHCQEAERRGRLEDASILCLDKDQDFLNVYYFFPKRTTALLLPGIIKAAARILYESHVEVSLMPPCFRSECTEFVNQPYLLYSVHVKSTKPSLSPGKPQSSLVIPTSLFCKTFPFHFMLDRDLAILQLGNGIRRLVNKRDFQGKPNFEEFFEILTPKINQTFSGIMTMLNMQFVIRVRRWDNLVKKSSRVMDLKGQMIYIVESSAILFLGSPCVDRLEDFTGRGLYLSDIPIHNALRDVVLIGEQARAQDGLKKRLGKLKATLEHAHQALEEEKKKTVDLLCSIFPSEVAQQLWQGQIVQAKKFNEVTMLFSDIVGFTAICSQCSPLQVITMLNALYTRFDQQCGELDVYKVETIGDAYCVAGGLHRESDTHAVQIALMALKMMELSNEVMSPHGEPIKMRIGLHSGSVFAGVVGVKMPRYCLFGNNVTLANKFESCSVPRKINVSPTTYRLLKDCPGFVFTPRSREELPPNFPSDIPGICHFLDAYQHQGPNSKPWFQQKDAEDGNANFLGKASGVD
T2 sequence (P20595 whole entry): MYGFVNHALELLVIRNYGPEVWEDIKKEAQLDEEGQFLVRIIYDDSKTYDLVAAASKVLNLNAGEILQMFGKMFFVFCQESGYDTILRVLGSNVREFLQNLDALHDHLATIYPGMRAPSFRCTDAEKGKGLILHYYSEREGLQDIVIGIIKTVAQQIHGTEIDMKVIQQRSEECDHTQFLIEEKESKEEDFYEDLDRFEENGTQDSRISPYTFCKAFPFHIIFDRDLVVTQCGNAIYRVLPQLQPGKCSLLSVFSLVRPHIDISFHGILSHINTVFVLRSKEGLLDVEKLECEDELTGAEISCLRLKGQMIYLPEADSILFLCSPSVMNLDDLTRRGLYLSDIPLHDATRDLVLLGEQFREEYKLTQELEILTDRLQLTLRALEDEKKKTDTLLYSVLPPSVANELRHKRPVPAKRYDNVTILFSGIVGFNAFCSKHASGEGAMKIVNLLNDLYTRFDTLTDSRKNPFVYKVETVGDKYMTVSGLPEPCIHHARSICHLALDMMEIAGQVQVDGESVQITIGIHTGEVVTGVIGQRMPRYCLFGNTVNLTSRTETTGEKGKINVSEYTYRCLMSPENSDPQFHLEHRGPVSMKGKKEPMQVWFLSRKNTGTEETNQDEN
Procedure: Soluble guanylate cyclase (sGC) converts on stimulation GTP into cGMP and pyrophosphate (PPi). PPi is detected with the aid of the assay described below. The signal produced in the assay increases as the reaction progresses and serves as a measure of the sGC enzyme activity under the given stimulation.
To carry out the assay, 29 μl of enzyme solution [0-10 nM soluble guanylate cyclase (prepared according to Honicka et al., J. Mol. Med. 77, 14-23 (1999)) in 50 mM TEA, 2 mM MgCl2, 0.1% BSA (fraction V), 0.005% Brij®, pH 7.5] are initially introduced into a microplate, and 1 μl of the substance to be tested (as a serially diluted solution in DMSO) is added. The mixture is incubated at room temperature for 10 min. Then 20 μl of detection mix [1.2 nM Firefly Luciferase (Photinus pyralis luciferase, Promega), 29 μM dehydroluciferin (prepared according to Bitler & McElroy, Arch. Biochem. Biophys. 72, 358 (1957)), 122 μM luciferin (Promega), 153 μM ATP (Sigma) and 0.4 mM DTT (Sigma) in 50 mM TEA, 2 mM MgCl2, 0.1% BSA (fraction V), 0.005% Brij®, pH 7.5] are added. The enzyme reaction is started by adding 20 μl of substrate solution [1.25 mM guanosine 5′-triphosphate (Sigma) in 50 mM TEA, 2 mM MgCl2, 0.1% BSA (fraction V), 0.005% Brij®, pH 7.5] and measured continuously in a luminometer. The extent of the stimulation by the substance to be tested can be determined relative to the signal of the unstimulated reaction.
The activation of haem-free guanylate cyclase is examined by addition of 25 μM of 1H-1,2,4-oxadiazolo[4,3-a]quinoxalin-1-one (ODQ) to the enzyme solution and subsequent incubation for 30 minutes and compared to the stimulation of the native enzyme.

| SMILES | IC50 [1] [nM] | Emax [2] [%] | EC50 [2] [nM] | MEC (minimum effective concentration), activating action at the sGC enzyme [3] [nM] | EC50 [3] [nM] |
| --- | --- | --- | --- | --- | --- |
| C[C@H]([C@H](C(=O)Nc1cc(CC2(C(=O)O)CC2)ccc1Cl)c1ccc(Cl)c(F)c1)C(F)(F)F [Example 30, (+)-1-(4-chloro-3-{[(2S,3R)-2-(4-chloro-3-fluoro-phenyl)-4,4,4-trifluoro-3-methylbutanoyl]amino}-benzyl)cyclopropanecarboxylic acid] | 606 | 0 | > 10000 | 0.6 | 7.6 |
| C[C@H]([C@H](C(=O)Nc1cc(CC2(C(=O)O)CC2)ccc1Cl)c1ccc(Cl)cc1)C(F)(F)F [Example 50, (+)-1-(4-Chloro-3-{[(2S,3R)-2-(4-chlorophenyl)-4,4,4-trifluoro-3-methylbutanoyl]amino}benzyl)-cyclopropanecarboxylic acid] | 145 | 0 | > 10000 | 0.7 | 7.3 |
| [2H]C([2H])([2H])OC(c1ccc(Cl)c(NC(=O)[C@H](c2ccc(Cl)cc2)[C@@H](C)C(F)(F)F)c1)C1(C(=O)O)CC1 (single isomer, unassigned; (+)) [Example 99] |  | 0 | > 10000 | 4.1 | 53 |
| CCOC(c1ccc(Cl)c(NC(=O)[C@H](c2ccc(Cl)cc2)[C@@H](C)C(F)(F)F)c1)C1(C(=O)O)CC1 (single isomer, unassigned) [Example 101] | 685 | 0 | > 10000 | 0.7 | 4.6 |
